Measured values from patent US11213030B2, “4-(3,4-dihydronaphth-1-yl or 2H-chromen-4-yl)-5-hydroxy-2H-pyradizin-3-ones as herbicides” (FMC Corporation, priority 2017, dated 2022).

How the values were obtained:
Format in all cases: in vivo
[1] = system: barnyardgrass (Echinochloa crus-galli); experiment: Test A postemergence, barnyardgrass; details: 0 to 100 scale
Source text: (§1) Seeds of plant species selected from barnyardgrass (Echinochloa crus-galli), kochia (Kochia scoparia), ragweed (common ragweed, Ambrosia elatior), ryegrass, It. (Italian ryegrass, Lolium multiflorum), foxtail, green (green foxtail, Setaria viridis), and pigweed (Amaranthus retroflexus) were planted into a blend of loam soil and sand and treated preemergence with a directed soil spray using test chemicals formulated in a non-phytotoxic solvent mixture which included a surfactant. At the same time, plants selected from these weed species and also wheat (Triticum aestivum), corn (Zea mays), blackgrass (Alopecurus myosuroides), and galium (catchweed bedstraw, Galium aparine) were planted in pots containing the same blend of loam soil and sand and treated with postemergence applications of test chemicals formulated in the same manner. Plants ranged in height from 2 to 10 cm and were in the one- to two-leaf stage for the postemergence treatment. Treated plants and untreated controls were maintained in a greenhouse for approximately 10 d, after which time all treated plants were compared to untreated controls and visually evaluated for injury. Plant response ratings, summarized in Table A, are based on a 0 to 100 scale where 0 is no effect and 100 is complete control. A dash (-) response means no test result.

[2] = system: ryegrass, It. (Italian ryegrass, Lolium multiflorum); experiment: Test A postemergence, Italian ryegrass; details: 0 to 100 scale; for Plant response rating, Ryegrass, It.: 125 g ai/ha; for Plant response rating, Ryegrass, Italian: 500 g ai/ha
Source text: as §1

[3] = system: barnyardgrass (Echinochloa crus-galli); experiment: Test A preemergence, barnyardgrass; details: 0 to 100 scale
Source text: as §1

[4] = system: foxtail, green (green foxtail, Setaria viridis); experiment: Test A postemergence, green foxtail; details: 0 to 100 scale
Source text: as §1

[5] = system: ragweed (common ragweed, Ambrosia elatior); experiment: Test A postemergence, ragweed; details: 0 to 100 scale
Source text: as §1

[6] = system: ryegrass, It. (Italian ryegrass, Lolium multiflorum); experiment: Test A preemergence, Italian ryegrass; details: 0 to 100 scale
Source text: as §1

kochia (Kochia scoparia) [7] = experiment: Test A postemergence, kochia; details: 0 to 100 scale
Source text: as §1

[8] = system: pigweed (Amaranthus retroflexus); experiment: Test A preemergence, pigweed; details: 0 to 100 scale
Source text: as §1

kochia (Kochia scoparia) [9] = experiment: Test A preemergence, kochia; details: 0 to 100 scale
Source text: as §1

rice (Oryza sativa) = experiment: Test B flooded paddy test, rice; details: Flood, 250 g ai/ha applied to paddy water, 2-leaf stage, 13 to 15 d; scale of 0 to 100 where 0 is no effect and 100 is complete control
Procedure: (§2) Plant species in the flooded paddy test selected from rice (Oryza sativa), sedge, umbrella (small-flower umbrella sedge, Cyperus difformis), ducksalad (Heteranthera limosa), and barnyardgrass (Echinochloa crus-galli) were grown to the 2-leaf stage for testing. At the time of treatment, test pots were flooded to 3 cm above the soil surface, treated by application of test compounds directly to the paddy water, and then maintained at that water depth for the duration of the test. Treated plants and controls were maintained in a greenhouse for 13 to 15 d, after which time all species were compared to controls and visually evaluated. Plant response ratings, summarized in Table B, are based on a scale of 0 to 100 where 0 is no effect and 100 is complete control. A dash (-) response means no test result.

[10] = system: blackgrass (Alopecurus myosuroides); experiment: Test A postemergence, blackgrass; details: 0 to 100 scale
Source text: as §1

corn (Zea mays) = experiment: Test A postemergence, corn; details: 0 to 100 scale
Source text: as §1

[11] = system: sedge, umbrella (small-flower umbrella sedge, Cyperus difformis); experiment: Test B flooded paddy test, umbrella sedge; details: Flood, 250 g ai/ha applied to paddy water, 2-leaf stage, 13 to 15 d; scale of 0 to 100 where 0 is no effect and 100 is complete control
Procedure: as §2

[12] = system: foxtail, green (green foxtail, Setaria viridis); experiment: Test A preemergence, green foxtail; details: 0 to 100 scale
Source text: as §1

[13] = system: wheat (Triticum aestivum); experiment: Test A postemergence, wheat; details: 0 to 100 scale
Source text: as §1

[14] = system: ducksalad (Heteranthera limosa); experiment: Test B flooded paddy test, ducksalad; details: Flood, 250 g ai/ha applied to paddy water, 2-leaf stage, 13 to 15 d; scale of 0 to 100 where 0 is no effect and 100 is complete control
Procedure: as §2

[15] = system: pigweed (Amaranthus retroflexus); experiment: Test A postemergence, pigweed; details: 0 to 100 scale
Source text: as §1

[16] = system: barnyardgrass (Echinochloa crus-galli); experiment: Test B flooded paddy test, barnyardgrass; details: Flood, 250 g ai/ha applied to paddy water, 2-leaf stage, 13 to 15 d; scale of 0 to 100 where 0 is no effect and 100 is complete control
Procedure: as §2

[17] = system: ragweed (common ragweed, Ambrosia elatior); experiment: Test A preemergence, ragweed; details: 0 to 100 scale
Source text: as §1

[18] = system: galium (catchweed bedstraw, Galium aparine); experiment: Test A postemergence, galium; details: 0 to 100 scale
Source text: as §1

CC1=C(c2c(O)c(C)nn(C)c2=O)c2ccccc2OC1 [Compound 3, 5-hydroxy-2,6-dimethyl-4-(3-methyl-2H-1-benzopyran-4-yl)-3(2H)-pyridazinone]
Plant response rating, Barnyardgrass ([1]; 125 g ai/ha): 0
Plant response rating, Barnyardgrass ([1]; 500 g ai/ha): 10
Plant response rating, Ryegrass, It. [2]: 10
Plant response rating, Ryegrass, Italian [2]: 60
Plant response rating, Barnyardgrass ([3]; 125 g ai/ha): 0
Plant response rating, Barnyardgrass ([3]; 500 g ai/ha): 0
Plant response rating, Foxtail, Green ([4]; 125 g ai/ha): 0
Plant response rating, Foxtail, Green ([4]; 500 g ai/ha): 20
Plant response rating, Ragweed ([5]; 125 g ai/ha): 60
Plant response rating, Ragweed ([5]; 500 g ai/ha): 90
Plant response rating, Ryegrass, It. ([6]; 125 g ai/ha): 0
Plant response rating, Ryegrass, It. ([6]; 500 g ai/ha): 10
Plant response rating, Kochia (kochia (Kochia scoparia) [7]; 125 g ai/ha): 70
Plant response rating, Kochia (kochia (Kochia scoparia) [7]; 500 g ai/ha): 90
Plant response rating, Pigweed ([8]; 125 g ai/ha): 10
Plant response rating, Pigweed ([8]; 500 g ai/ha): 60
Plant response rating, Kochia (kochia (Kochia scoparia) [9]; 125 g ai/ha): 10
Plant response rating, Kochia (kochia (Kochia scoparia) [9]; 500 g ai/ha): 30
Plant response rating, Rice (rice (Oryza sativa)): 0
Plant response rating, Blackgrass ([10]; 125 g ai/ha): 0
Plant response rating, Blackgrass ([10]; 500 g ai/ha): 10
Plant response rating, Corn (corn (Zea mays); 125 g ai/ha): 0
Plant response rating, Corn (corn (Zea mays); 500 g ai/ha): 10
Plant response rating, Sedge, Umbrella [11]: 50
Plant response rating, Foxtail, Green ([12]; 125 g ai/ha): 0
Plant response rating, Foxtail, Green ([12]; 500 g ai/ha): 0
Plant response rating, Wheat ([13]; 125 g ai/ha): 0
Plant response rating, Wheat ([13]; 500 g ai/ha): 0
Plant response rating, Ducksalad [14]: 0
Plant response rating, Pigweed ([15]; 125 g ai/ha): 80
Plant response rating, Pigweed ([15]; 500 g ai/ha): 100
Plant response rating, Barnyardgrass [16]: 0
Plant response rating, Ragweed ([17]; 125 g ai/ha): 0
Plant response rating, Ragweed ([17]; 500 g ai/ha): 50

CC1=C(c2c(O)c(C)nn(C)c2=O)c2ccccc2CC1 [Compound 2, 4-(3,4-dihydro-2-methyl-1-naphthalenyl)-5-hydroxy-2,6-dimethyl-3(2H)-pyridazinone]
Plant response rating, Barnyardgrass ([1]; 125 g ai/ha): 0
Plant response rating, Barnyardgrass ([1]; 500 g ai/ha): 20
Plant response rating, Ryegrass, It. [2]: 60
Plant response rating, Ryegrass, Italian [2]: 100
Plant response rating, Barnyardgrass ([3]; 125 g ai/ha): 0
Plant response rating, Barnyardgrass ([3]; 500 g ai/ha): 0
Plant response rating, Foxtail, Green ([4]; 125 g ai/ha): 10
Plant response rating, Foxtail, Green ([4]; 500 g ai/ha): 70
Plant response rating, Ragweed ([5]; 125 g ai/ha): 80
Plant response rating, Ragweed ([5]; 500 g ai/ha): 90
Plant response rating, Ryegrass, It. ([6]; 125 g ai/ha): 40
Plant response rating, Ryegrass, It. ([6]; 500 g ai/ha): 50
Plant response rating, Kochia (kochia (Kochia scoparia) [7]; 125 g ai/ha): 80
Plant response rating, Kochia (kochia (Kochia scoparia) [7]; 500 g ai/ha): 90
Plant response rating, Pigweed ([8]; 125 g ai/ha): 0
Plant response rating, Pigweed ([8]; 500 g ai/ha): 80
Plant response rating, Galium ([18]; 125 g ai/ha): 90
Plant response rating, Galium ([18]; 500 g ai/ha): 100
Plant response rating, Kochia (kochia (Kochia scoparia) [9]; 125 g ai/ha): 0
Plant response rating, Kochia (kochia (Kochia scoparia) [9]; 500 g ai/ha): 80
Plant response rating, Rice (rice (Oryza sativa)): 0
Plant response rating, Blackgrass ([10]; 125 g ai/ha): 0
Plant response rating, Blackgrass ([10]; 500 g ai/ha): 20
Plant response rating, Corn (corn (Zea mays); 125 g ai/ha): 10
Plant response rating, Corn (corn (Zea mays); 500 g ai/ha): 10
Plant response rating, Sedge, Umbrella [11]: 0
Plant response rating, Foxtail, Green ([12]; 125 g ai/ha): 0
Plant response rating, Foxtail, Green ([12]; 500 g ai/ha): 0
Plant response rating, Wheat ([13]; 125 g ai/ha): 0
Plant response rating, Wheat ([13]; 500 g ai/ha): 0
Plant response rating, Ducksalad [14]: 0
Plant response rating, Pigweed ([15]; 125 g ai/ha): 80
Plant response rating, Pigweed ([15]; 500 g ai/ha): 90
Plant response rating, Barnyardgrass [16]: 0
Plant response rating, Ragweed ([17]; 125 g ai/ha): 40
Plant response rating, Ragweed ([17]; 500 g ai/ha): 90
